# Source: patent US8703751B2, “Androstenediol as an indicator for assessing estrogenicity” (The Regents of the University of California, priority 2009, dated 2014)
# Entries after “also recorded” stand apart in the source; their conditions may differ.
# What was measured:
# [1] = biological target: T1, estrogen-alpha receptor (Homo sapiens, UniProt P03372); test: cell-based estrogen receptor bioassay (BG1 cells, luciferase reporter under four estrogen-response elements) for estrogenicity; details: for inherent estrogenic bioactivity (estrogenicity): at physiological circulating concentrations, FIG. 5 dose-response curves
# T1 construct: human ovarian carcinoma cells (BG1) that have been stably transfected with a luciferase reporter gene plasmid; endogenous in cells; host or cells: BG1 human ovarian carcinoma cells stably transfected with an ERE-luciferase reporter plasmid
# Description: The total estrogen receptor ligand load (ERLL) can be determined using any method known in the art. The ERLL provides an estimate of the combined biological potential of the estrogen-alpha receptor ligand load contained in the sample. […] Other cell lines can find use. […] The detectable signal of any reporter gene known in the art can be used, including without limitation luciferase and fluorescent proteins (e.g., green fluorescent protein, yellow fluorescent protein, blue fluorescent protein, red fluorescent protein, etc.). In the case where […] is used as the reporter gene, […] substrate is added to the culture and the luciferase activity induced by the standards and/or test sample are measured using a Luminometer.
# This assay assesses the total estrogenic bioactivity contained in a serum sample. Thus and estimate of the combined biological potential of the estrogen-alpha receptor ligand load (ERLL) contained in the sample. Thus the bioactivity of a sample will be appropriately estimated. Briefly, human ovarian carcinoma cells (BG1) that have been stably transfected with a luciferase reporter gene plasmid under the regulation of four estrogen-response elements were used to measure total bioactive estrogens. BG1 cells were cultured in Alpha Minimum Essential Medium (Alpha-MEM) with 10% fetal bovine serum (FBS). When cells reached 80% confluence, cells were trypsinized (0.05% trypsin-EDTA) and well dispersed in phenol-red free Dulbecco's […] (DMEM) supplemented with 10% dextran charcoal treated FBS (DCC-FBS). Suspended cells (0.05 mL/well; density of 25,000 cells/0.05 mL) were added to 96-well tissue culture plates containing 0.15 mL/well of phenol-red free DMEM supplemented with 10% DCC-FBS. On each of the two subsequent days (Days 2 and 3), the media in each well was removed and replaced with 0.2 mL phenol-red free DMEM supplemented with 10% DCC-FBS. […] To compensate for any serum matrix effects, DCC-FBS was added to the E2 standard preparation at a proportion equal to that of the serum content of the sample preparation (5% v/v). Serum samples were diluted in DCC-FBS with a final serum content of 5% (v/v). Plates were then incubated for an additional 18 hours. Media was then removed and 0.1 mL cell lysis buffer added to each well and allowed to incubate for 20 minutes. Cell lysates (0.04 mL) were transferred to 96-well Microfluor II plates (Fisher Scientific, Santa Clara, Calif.). Luciferin substrate was injected into each well and the luciferase activity induced by the standards and/or test serum was measured by a Veritas Luminometer (Turner Biosystems, Sunnyvale, Calif., USA).
# The third element for developing the concept was that of gaining additional insight into the innate properties of all of the adrenal steroids that were associated with the rise of DS during the menopausal transition. For these investigations newly developed in vitro bioassays were used to adjudicate the estrogenicity of all for adrenal steroids (i.e., T, A-dione, 5A-diol and DHEA).
# [2] = 25 mg oral dose for three months; from 0.32 ng/mL before (doubling); cited from earlier work
# [3] = cited from earlier work
# [4] = local, intravaginal suppository; cited from earlier work
# [5] = transdermal administration; 60-65 year old women; cited from earlier work
# [6] = oral 50 mg/day for one year, women over 70 years old
# T1 sequence (P03372 whole entry): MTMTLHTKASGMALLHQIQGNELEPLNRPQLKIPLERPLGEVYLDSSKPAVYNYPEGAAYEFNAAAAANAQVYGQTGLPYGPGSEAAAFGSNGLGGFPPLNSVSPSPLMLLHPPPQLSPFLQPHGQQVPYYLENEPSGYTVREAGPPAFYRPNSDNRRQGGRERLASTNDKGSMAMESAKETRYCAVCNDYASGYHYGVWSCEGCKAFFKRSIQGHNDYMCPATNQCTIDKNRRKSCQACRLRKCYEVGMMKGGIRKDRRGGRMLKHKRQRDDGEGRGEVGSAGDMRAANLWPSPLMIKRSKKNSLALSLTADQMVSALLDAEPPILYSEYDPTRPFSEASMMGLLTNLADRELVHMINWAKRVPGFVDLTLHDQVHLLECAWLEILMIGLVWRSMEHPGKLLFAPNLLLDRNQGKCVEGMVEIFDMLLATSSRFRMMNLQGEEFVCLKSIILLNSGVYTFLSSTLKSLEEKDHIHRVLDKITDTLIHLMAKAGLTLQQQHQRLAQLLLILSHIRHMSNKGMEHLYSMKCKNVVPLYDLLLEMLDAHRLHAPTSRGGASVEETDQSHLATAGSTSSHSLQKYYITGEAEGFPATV
compound,measurement,setting,value
"C[C@]12CC[C@H]3[C@@H](CC=C4C[C@@H](O)CC[C@@]43C)[C@@H]1CC[C@@H]2O [5A-diol, (3-beta,17-beta)-Androst-5-ene-3,17-diol]",estrogenic or not (discussion statement),[1],is estrogenic
same,inherent estrogenic bioactivity (estrogenicity),[1],substantial inherent estrogenic bioactivity
same,inherent estrogenic bioactivity (estrogenicity),[1]; listed as androstenediol,significant “estrogenicity” at physiological levels
"C[C@]12CC[C@H]3[C@@H](CCC4=CC(=O)CC[C@@]43C)[C@@H]1CC[C@@H]2O [T, testosterone]",inherent estrogenic bioactivity (estrogenicity),[1],only 5A-diol and estradiol had substantial inherent estrogenic bioactivity
"C[C@]12CCC(=O)C=C1CC[C@@H]1[C@@H]2CC[C@]2(C)C(=O)CC[C@@H]12 [A-dione, androstendione]",inherent estrogenic bioactivity (estrogenicity),[1],only 5A-diol and estradiol had substantial inherent estrogenic bioactivity
"C[C@]12CC[C@H](O)CC1=CC[C@@H]1[C@@H]2CC[C@]2(C)C(=O)CC[C@@H]12 [DHEA, dehydroepiandrosterone]",circulating concentration of A-diol after treatment,[2],0.66 ng/mL
same,BMD and bone resorption,"[3]; 50 mg daily oral, adults 55-85 years of age, in women but not men",only modest effect
same,muscle status,"[3]; 50 mg/day oral, one year, men and women between 60 and 80 years of age",no positive effect
same,bone turnover,[3]; [6],modestly decrease
same,libido,[3]; [6],increase
same,skin hydration,[3]; [6],improve
same,age-related vaginal atrophy,[4],highly efficient treatment
same,change in circulating sex steroid concentrations,[4],no significant change
same,increase in circulating DS,[5],five fold increase
same,increase in circulating androstendiol glucuronides,[5],less than a two and one-half fold increase
same,estrogenic or not (discussion statement),[1],not estrogenic
same,inherent estrogenic bioactivity (estrogenicity),[1],only 5A-diol and estradiol had substantial inherent estrogenic bioactivity; also recorded: does not
